Source: patent US11802120B2, “Fused cyclic urea derivatives as CRHR2 antagonist” (RaQualia Pharma Inc., priority 2018, dated 2023)

molecular target: T1, human CRHR2-alpha (Homo sapiens, UniProt Q13324); experiment: cAMP functional assay for human CRHR2 (LANCE Ultra cAMP, TR-FRET); assay type: cell-based; conditions: CHO-K1 cells expressing human CRHR2-alpha, agonist human urocortin2 at EC80, cAMP; read-out: IC50 against CRHR2
T1 sequence (Q13324 1-411): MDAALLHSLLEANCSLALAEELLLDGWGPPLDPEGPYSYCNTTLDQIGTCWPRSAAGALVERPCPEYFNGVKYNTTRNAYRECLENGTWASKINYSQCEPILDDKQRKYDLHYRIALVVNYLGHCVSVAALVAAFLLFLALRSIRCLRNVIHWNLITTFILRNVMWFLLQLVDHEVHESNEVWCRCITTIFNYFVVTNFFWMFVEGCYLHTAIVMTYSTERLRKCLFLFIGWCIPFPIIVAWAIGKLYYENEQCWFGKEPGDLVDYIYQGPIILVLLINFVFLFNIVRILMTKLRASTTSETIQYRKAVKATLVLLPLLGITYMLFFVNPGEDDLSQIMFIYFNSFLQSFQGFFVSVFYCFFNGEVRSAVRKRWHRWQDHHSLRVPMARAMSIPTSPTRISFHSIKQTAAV
Summary of the method: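 CHO-K1 cells stably expressing each receptor, serum-starved and cryopreserved, were preincubated with compound 30 min at 25° C in HBSS buffer with 0.5 mM IBMX, pH 7.4, then stimulated 30 min with EC80 agonist (urocortin2 for CRHR2, CRF for CRHR1). cAMP read by TR-FRET; IC50 from percent-inhibition curves.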

IC50, < 300 nM:
O=C(N[C@H]1CC[C@H](Cn2c(=O)n(-c3ccc(OCCO)nc3)c3ccccc32)CC1)c1cc(Cl)cnc1C(F)(F)F [Example 301, 5-chloro-N-((1r,4r)-4-((3-(6-(2-hydroxyethoxy)pyridin-3-yl)-2-oxo-2,3-dihydro-1H-benzo[d]imidazol-1-yl)methyl)cyclohexyl)-2-(trifluoromethyl)nicotinamide]
O=C(N[C@H]1CC[C@H](Cn2c(=O)n(-c3ccc(O[C@H]4CCOC4)nc3)c3ccccc32)CC1)c1cc(Cl)cnc1C(F)F [Example 430, 5-chloro-2-(difluoromethyl)-N-((1S,4r)-4-((2-oxo-3-(6-(((S)-tetrahydrofuran-3-yl)oxy)pyridin-3-yl)-2,3-dihydro-1H-benzo[d]imidazol-1-yl)methyl)cyclohexyl)nicotinamide]
Cc1ncc(Cl)cc1C(=O)N[C@H]1CC[C@H](Cn2c(=O)n(-c3ccc(-c4ncc[nH]4)nc3)c3ccccc32)CC1 [Example 695, N-((1r,4r)-4-((3-(6-(1H-imidazol-2-yl)pyridin-3-yl)-2-oxo-2,3-dihydro-1H-benzo[d]imidazol-1-yl)methyl)cyclohexyl)-5-chloro-2-methylnicotinamide]
O=C(N[C@H]1CC[C@H](Cn2c(=O)n(-c3ccc4ncccc4c3)c3ccccc32)CC1)c1cc(Cl)cnc1C(F)F [Example 392, 5-chloro-2-(difluoromethyl)-N-((1r,4r)-4-((2-oxo-3-(quinolin-6-yl)-2,3-dihydro-1H-benzo[d]imidazol-1-yl)methyl)cyclohexyl)nicotinamide]
COc1ccc(F)c(-n2c(=O)n(C[C@H]3CC[C@H](NC(=O)c4cc(Cl)cnc4C(F)F)CC3)c3cnccc32)c1 [Example 726, 5-chloro-2-(difluoromethyl)-N-((1r,4r)-4-((1-(2-fluoro-5-methoxyphenyl)-2-oxo-1H-imidazo[4,5-c]pyridin-3(2H)-yl)methyl)cyclohexyl) nicotinamide]
Cc1ncc(Cl)cc1C(=O)N[C@H]1CC[C@H](Cn2c(=O)n(-c3cccc(-c4ccn(C)n4)c3)c3ccccc32)CC1 [Example 651, 5-chloro-2-methyl-N-((1r,4r)-4-((3-(3-(1-methyl-1H-pyrazol-3-yl)phenyl)-2-oxo-2,3-dihydro-1H-benzo [d]imidazol-1-yl)methyl)cyclohexyl)nicotinamide]
Cc1ncc(Cl)cc1C(=O)N[C@H]1CC[C@H](Cn2c(=O)n(-c3ccncc3Cl)c3ccccc32)CC1 [Example 262, 5-chloro-N-((1r,4r)-4-((3-(3-chloropyridin-4-yl)-2-oxo-2,3-dihydro-1H-benzo[d]imidazol-1-yl)methyl)cyclo-hexyl)-2-methylnicotinamide]
Cn1ncc2c(-n3c(=O)n(C[C@H]4CC[C@H](NC(=O)c5cc(Cl)cnc5C(F)F)CC4)c4ccccc43)cccc21 [Example 374, 5-chloro-2-(difluoromethyl)-N-((1r,4r)-4-((3-(1-methyl-1H-indazol-4-yl)-2-oxo-2,3-dihydro-1H-benzo[d]imidazol-1-yl)methyl)cyclohexyl) nicotinamide]
CNC(=O)c1ccc(-n2c(=O)n(C[C@H]3CC[C@H](NC(=O)c4cc(Cl)cnc4CC(F)F)CC3)c3ccccc32)cn1 [Example 349, 5-(3-(((1r,4r)-4-(5-chloro-2-(2,2-difluoroethyl)nicotina-mido)cyclohexyl)methyl)-2-oxo-2,3-dihydro-1H-benzo[d]imidazol-1-yl)-N-methyl-picolinamide]
Cc1ncc(Cl)cc1C(=O)N[C@H]1CC[C@H](Cn2c(=O)n(-c3cccc(N4CCOCC4)c3)c3ccccc32)CC1 [Example 444, 5-chloro-2-methyl-N-((1r,4r)-4-((3-(3-morpholinophenyl)-2-oxo-2,3-dihydro-1H-benzo [d]imidazol-1-yl)methyl)cyclo-hexyl)nicotinamide]
